Assay results reported in patent publication US20130040937A1, “INHIBITORS FOR TREATING AND PREVENTING HEART FAILURE IN FELINES” (BOEHRINGER INGELHEIM VETMEDICA GMBH, priority 2011, published 2013).
Like-named read-outs stand apart in the source and are kept apart here.

Key:
[1] = system: left atrial systolic and global function; conditions: feline CMP; cited from earlier work
[2] = system: healthy cats and cats with hypertrophic cardiomyopathy; conditions: cited from earlier work
[3] = system: Ih channel; conditions: literature (Neuroscience 1994; Br J Pharmacol 1998); cited from earlier work
[4] = system: cats suffering from HF due to HCM; assay: Blinded, controlled, randomised efficacy field study in HCM cats; assay type: in vivo; parameters: key to Right heart enlargement (score): Score 1: normal size; Score 2: mild enlargement; Score 3: moderate enlargement; Score 4: severe enlargement; conditions: HCM cat; for Right heart enlargement (score): X-ray
Experimental: A blinded, controlled, randomised, efficacy field study was conducted with HCM cats receiving cilobradine (initial dose: 0.2 mg/kg po. twice daily) or a placebo (dose: 0.0 mg/kg po. twice daily) for 85 days. The dose of cilobradine could be adjusted during the study (dose range 0.1-0.5 mg/kg per-oral twice daily). The administration of furosemide was allowed in both groups. All cats were hospitalised in the first week of the study (study days 1-6), and they were allowed to go home afterwards (study days 7-85).
Cats with a diagnosis of HCM were included in the study. The diagnosis of HCM was established by using echocardiography showing global, regional or segmental thickness of the interventricular septum and/or left ventricular free-wall in diastole greater than 6 mm. Further inclusion criteria were: systolic blood pressure less than 170 mmHg; serum thyroxine (T4) was normal; and body weight was higher than 2 kg.
The owner provided a signed informed consent for the animal to enter the study. Cats that suffered from heart disease were scored using a 4 point score adapted from the ISACHC as follows: • Score 1: presence of heart disease associated with no clinical signs but detectable (e,g, auscultation, echocardiography and radiography); • Score 2: clinical signs of heart failure evident and adversely affect the quality of life. Typical signs include dyspnea/tachypnea, pulmonary congestion, weakness/lethargy, anorexia, exercise intolerance; • Score 3: clinical signs of advance heart failure immediately obvious. These clinical signs could have included respiratory distress, marked ascites/pulmonary congestion, profound exercise intolerance or hypoperfusion at rest; and • Score 4: severe cases: subject was moribund, suffered from cardiogenic shock or acute posterior paresis/paralysis. Hospitalization was mandatory.
Cats having one or more of the following criteria were excluded: • a) The cat had received one or more of the following pretreatments: calcium channel blockers, e.g. diltiazem, angiotensin converting enzyme inhibitors, f3-blockers, acetylsalicylic acid, or digitales glycosides. (Cats pre-treated with furosemide alone were allowed to be included in either of the groups if they matched all inclusion criteria above.) • b) Elevated serum T4 level; • c) Elevated serum blood urea nitrogen (BUN) levels higher than 90 mg/dL or elevated serum creatinine levels higher than 3 mg/dL; • d) Systolic arterial blood pressure greater than or equal to 170 mmHg; • e) Dilated cardiomyopathy (DCM); • f) Suffered from heart disease with a score of 4 (adapted ISACHC score) or with no documented episode of heart failure (score 2 or 3) within 30 days before enrollment; • g) Fixed aortic stenosis; • h) Were pregnant or lactating queens; • i) Were nursing kittens; • j) Body weight less than 2 kg; or • k) Presence of sinus bradycardia (heart rate less than 120 bpm at consultation).
The cat's quality of life was assessed on a daily basis using the following grading system: 1 (better), 2 (equal), 3 (worse).
Furthermore, right heart enlargement was assessed by X-ray using the following scoring system: Score 1: normal size; Score 2: mild enlargement; Score 3: moderate enlargement; and Score 4: severe enlargement. Mild enlargement of the right side of the heart was observed using X-ray in the cat receiving a placebo at the end of the study. In contrast, the right side of the heart was normal in the cat receiving cilobradine throughout the study (see Table 10).

[5] = Pharmacokinetics in healthy human male subjects, once daily po. for 7 days; assay type: in vivo
Experimental: (§1) Cilobradine chloride salt was administered at a dose of 5, 10 and 20 mg per subject in the form of capsules. These doses are equal to 0.07, 0.14, and 0.28 mg/kg cilobradine chloride salt assuming a body weight of 70 kg. […] Cilobradine hydrochloride was administered at a dose of 0.1 mg/kg and 0.3 mg/kg as a suspension. […] There are some differences between cats and humans in terms of pharmacokinetics of cilobradine, which might be related to differences in absorption, metabolisation, distribution, or excretion.

[6] = Pharmacokinetics in healthy cats, once daily po. for 4 days; assay type: in vivo; conditions: cat
Experimental: as §1

[7] = system: heart rate; assay: Heart rate after oral administration in humans; assay type: in vivo, human; conditions: over 9 h following administration, 5, 10, 20 mg per subject
Experimental: as §1

[8] = system: heart rate; assay: Pharmacodynamic profile (telemetric heart rate) in the conscious cat; assay type: in vivo
Experimental: as §1
The pharmacodynamic profile of cilobradine hydrochloride was characterised at two dose levels administered by the oral route, once and twice daily, in the conscious cat. The study involved 2 groups of 3 male European Short Hair cats weighing between 4.15 kg and 4.75 kg on the day of the first treatment. Each cat was dosed with cilobradine hydrochloride once (sid) and twice (bid) daily successively at 0.1 or 0.3 mg/kg in a cross over-design. Each treatment was separated by an interval of 24 hours (sid) or 12 hours (bid). A washout period of 7 days was scheduled between the 2 dosing periods. Cats were previously instrumented with telemetric transmitters for heart rate measurements. Telemetric measurements were recorded for 15 seconds every 5 minutes at a sampling rate of 500 Hz on D-2, D-1, from D0 up to D9 and from D16 up to D25 except for D4 and D20 during blood sampling.

[9] = system: healthy cats; assay: Effects on vasomotor tone, myocardial contractility and lusitropy in healthy cats; assay type: in vivo, cat; conditions: therapeutically relevant doses
Excerpt: “Funny If current inhibitors”, also referred to as “If channel blockers” or “If current inhibitors” herein, relate to If inhibitors including pharmaceutically acceptable salts thereof, which selectively block hyperpolarization-activated cyclic nucleotide-gated channels (HCN) in cardiac conductive tissue, channels responsible for the transmembrane current known as If. It is through blockade of this current that If channel blockers are assumed to produce their specific bradycardic effect. HCN channels are widely distributed in the nervous system and in the eye they mediate the current known as Ih. The effect of zatebradine and cilobradine on the Ih channel has also been investigated (See Neuroscience, Vol. 59(2), pp. 363-373, 1994 for zatebradine, and British Journal of Pharmacology, Vol. 125, pp. 741-750, 1998 for cilobradine). […] Cilobradine in particular reduces the heart rate in the sinoatrial node of the heart by selective blockade of If channels (“funny channels”) through a direct interaction with predominantly HCN4 channels. This blockage is potent and has a dosage and voltage dependency. Because of the high selectivity to the If current, effects on vasomotor tone or myocardial contractility and lusitropy are not observed at therapeutically relevant doses in healthy cats. […]

[10] = Lipophilicity profile; assay type: physicochemical; conditions: neutral pH versus acidic pH
Excerpt: Usually, EC/HPMC films show a sustained release behaviour that is independent of pH. […] This profile, together with the coating applied, may have led to a slower release.

CC(C)NCC(O)COc1ccc(CC(N)=O)cc1 (stereo not shown) [atenolol]
left atrial systolic and global function [1]: significantly decreased

COc1cc2c(cc1OC)CC(=O)N(CCCN(C)C[C@H]1Cc3cc(OC)c(OC)cc31)CC2 [ivabradine, 3-[3-[[[(7S)-3,4-dimethoxybicyclo[4.2.0]octa-1,3,5-trien-7-yl]methyl]methylamino]propyl]-1,3,4,5-tetrahydro-7,8-dimethoxy-2H-3-benzazepin-2-one]
heart rate reduction ([2]; healthy cats): significant heart rate reduction
negative chronotropic effect, dose relation ([2]; healthy cats): dose-dependency
heart rate reduction ([2]; subclinical HCM cats): significant heart rate reduction

COc1ccc(CCN(C)CCCN2CCc3cc(OC)c(OC)cc3CC2=O)cc1OC [zatebradine, reference compound]
block of Ih [3]: can also be blocked

COc1ccc(CCN2CCC[C@H](CN3CCc4cc(OC)c(OC)cc4CC3=O)C2)cc1OC [Cilobradine, (+)-3-[(N-(2-(3,4-dimethoxy-phenyl)ethyl)-piperidin-3-(S)-yl)-methyl]-(7,8-dimethoxy-1,3,4,5-tetrahydro-2H-3-benzazepin-2-on)]
reduction of the interventricular septal thickness in systole compared to placebo [4]: considerably greater
Interventricular septal thickness in systole ([4]; SD 0 (baseline)): 11.7 mm
Heart rate ([4]; SD 0 (baseline), initial dose 0.2 mg/kg po. twice daily): 152 beats per minutes
Heart rate ([4]; SD 7): 120 beats per minutes
Heart rate ([4]; SD 28): 144 beats per minutes
Heart rate ([4]; SD 56): 124 beats per minutes
Heart rate ([4]; SD 84): 210 beats per minutes
Interventricular septal thickness in systole ([4]; SD 84): 7.5 mm
Right heart enlargement (score) ([4]; SD 0 (baseline)): 1
Right heart enlargement (score) ([4]; SD 84): 1
quality of life ([4]; daily owner grading 1 (better), 2 (equal), 3 (worse), FIG. 1): almost continuous improvement
heart rate (in words) ([4]; study period, versus placebo cat): reduced throughout the study
right side of the heart (X-ray) ([4]; throughout the study): normal
Half-life ([5]; in vivo, healthy human male subjects, once daily po. for 7 days, 5-20 mg per subject, read-out: half-life): 10.1 to 13.9 h
Half-life ([6]; in vivo, healthy cats, once daily po. for 4 days, 0.1 and 0.3 mg/kg, read-out: half-life): 2.53 to 3.52 h
heart rate reduction [7]: dose dependent heart rate reduction
heart rate reduction ([8]; cats, over 9 h following administration, 0.1 and 0.3 mg/kg): dose dependent heart rate reduction
effects on vasomotor tone or myocardial contractility and lusitropy [9]: not observed
block of Ih [3]: can also be blocked

COc1ccc(CCN2CCC[C@H](CN3CCc4cc(OC)c(OC)cc4CC3=O)C2)cc1OC.Cl [cilobradine hydrochloride]
Half-life ([5]; human, 5 mg/subject (0.07 mg/kg), capsules, once daily po. 7 days): 13.9 h
Half-life ([5]; human, 10 mg/subject (0.14 mg/kg), capsules, once daily po. 7 days): 13.0 h
Half-life ([5]; human, 20 mg/subject (0.28 mg/kg), capsules, once daily po. 7 days): 10.1 h
Half-life ([6]; 0.1 mg/kg, suspension, once daily po. 4 days): 3.52 h
Half-life ([6]; 0.3 mg/kg, suspension, once daily po. 4 days): 2.53 h
bradycardia ([8]; conscious cat, oral 0.1 and 0.3 mg/kg per day, sid and bid): dose-dependent bradycardia
lipophilicity profile [10]: slightly more lipophilic at neutral pH values
